Measurements as given in the supplement of paper PMC8671470.

Assays:
KG-1 = test: cell viability (% survival relative to DMSO control, bortezomib = 0%); higher = less cytotoxic; conditions: 72 h
Procedure, shortened: (§1)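 Fifteen myeloid leukaemia cell lines (10 AML, 5 CML) were seeded at a density titrated to the linear growth range. They went into 384-well plates with compounds pre-printed at 1, 10, 100, 1000 or 10000 nM in duplicate. After 72 h at 37 °C with 5% CO2, viability was read by CellTiter-Glo luminescence. Values are percent survival, with vehicle set to 100% and a 10 µM positive control to 0%, averaged over the duplicates.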

THP-1 = test: as above; conditions: 72 h
Procedure, shortened: as §1

COc1cc2c(NC3CCN(C)CC3)nc(N3CCCN(C)CC3)nc2cc1OCCCN(C)C [UNC0224]
cell viability (KG-1; 1 nM): 102%
cell viability (KG-1; 10 nM): 117%
cell viability (KG-1; 100 nM): 94.1%
cell viability (KG-1; 1000 nM): 96.8%
cell viability (KG-1; 10000 nM): 108%
cell viability (THP-1; 1 nM): 103%
cell viability (THP-1; 10 nM): 102%
cell viability (THP-1; 100 nM): 93.8%
cell viability (THP-1; 1000 nM): 93%
cell viability (THP-1; 10000 nM): 79.7%

CN(C)c1nc(O)c2[nH]cnc2n1 [2-Dimethylamino-6-hydroxypurine]
cell viability (KG-1; 1 nM): 106%
cell viability (KG-1; 10 nM): 94.3%
cell viability (KG-1; 100 nM): 92.7%
cell viability (KG-1; 1000 nM): 96.7%
cell viability (KG-1; 10000 nM): 85.8%
cell viability (THP-1; 1 nM): 95.1%
cell viability (THP-1; 10 nM): 94.5%
cell viability (THP-1; 100 nM): 86.6%
cell viability (THP-1; 1000 nM): 97.3%
cell viability (THP-1; 10000 nM): 97.3%

O=C(O)c1cc2sccc2[nH]1 [4H-thieno[3,2-b]pyrrole-5-carboxylic acid]
cell viability (KG-1; 1 nM): 105%
cell viability (KG-1; 10 nM): 106%
cell viability (KG-1; 100 nM): 92.7%
cell viability (KG-1; 1000 nM): 91.8%
cell viability (KG-1; 10000 nM): 95.2%
cell viability (THP-1; 1 nM): 105%
cell viability (THP-1; 10 nM): 102%
cell viability (THP-1; 100 nM): 106%
cell viability (THP-1; 1000 nM): 97.7%
cell viability (THP-1; 10000 nM): 105%

C1CCC(C(CC2CCCCN2)C2CCCCC2)CC1.O=C(O)/C=C\C(=O)O (stereo not given) [Perhexiline]
cell viability (KG-1; 1 nM): 91.9%
cell viability (KG-1; 10 nM): 85.2%
cell viability (KG-1; 100 nM): 100%
cell viability (KG-1; 1000 nM): 95.6%
cell viability (KG-1; 10000 nM): 0.46%
cell viability (THP-1; 1 nM): 101%
cell viability (THP-1; 10 nM): 93.8%
cell viability (THP-1; 100 nM): 100%
cell viability (THP-1; 1000 nM): 89%
cell viability (THP-1; 10000 nM): -0.129%

O=C1Oc2ccccc2C(=O)C1CC1C(=O)Oc2ccccc2C1=O (stereo not given) [Dicumarol]
cell viability (KG-1; 1 nM): 106%
cell viability (KG-1; 10 nM): 105%
cell viability (KG-1; 100 nM): 88.6%
cell viability (KG-1; 1000 nM): 101%
cell viability (KG-1; 10000 nM): 95.9%
cell viability (THP-1; 1 nM): 100%
cell viability (THP-1; 10 nM): 102%
cell viability (THP-1; 100 nM): 96.3%
cell viability (THP-1; 1000 nM): 103%
cell viability (THP-1; 10000 nM): 94.2%

CCOC(=O)N1c2ccc(C(F)(F)F)cc2[C@@H](N(Cc2cc(C(F)(F)F)cc(C(F)(F)F)c2)C(=O)OC)C[C@H]1CC [Torcetrapib]
cell viability (KG-1; 1 nM): 84.9%
cell viability (KG-1; 10 nM): 52.6%
cell viability (KG-1; 100 nM): 107%
cell viability (KG-1; 1000 nM): 81.1%
cell viability (KG-1; 10000 nM): 45.1%
cell viability (THP-1; 1 nM): 103%
cell viability (THP-1; 10 nM): 97.6%
cell viability (THP-1; 100 nM): 99.4%
cell viability (THP-1; 1000 nM): 101%
cell viability (THP-1; 10000 nM): 92.2%

Nc1ccn([C@@H]2O[C@H](CO)[C@@H](O)[C@@H]2O)c(=O)n1 [Cytarabine]
cell viability (KG-1; 1 nM): 108%
cell viability (KG-1; 10 nM): 108%
cell viability (KG-1; 100 nM): 63.5%
cell viability (KG-1; 1000 nM): 21.8%
cell viability (KG-1; 10000 nM): 11.3%
cell viability (THP-1; 1 nM): 103%
cell viability (THP-1; 10 nM): 104%
cell viability (THP-1; 100 nM): 89.9%
cell viability (THP-1; 1000 nM): 91.7%
cell viability (THP-1; 10000 nM): 23.8%

CC(C(=O)O)C(=O)O [Methylmalonate]
cell viability (KG-1; 1 nM): 92.5%
cell viability (KG-1; 10 nM): 90.8%
cell viability (KG-1; 100 nM): 91.2%
cell viability (KG-1; 1000 nM): 88.9%
cell viability (KG-1; 10000 nM): 88.4%
cell viability (THP-1; 1 nM): 98.5%
cell viability (THP-1; 10 nM): 94.5%
cell viability (THP-1; 100 nM): 101%
cell viability (THP-1; 1000 nM): 103%
cell viability (THP-1; 10000 nM): 87.6%

CC(C)C[C@H](NC(=O)[C@@H](O)[C@H](N)Cc1ccccc1)C(=O)O [Ubenimex]
cell viability (KG-1; 1 nM): 111%
cell viability (KG-1; 10 nM): 105%
cell viability (KG-1; 100 nM): 98.9%
cell viability (KG-1; 1000 nM): 92.2%
cell viability (KG-1; 10000 nM): 88.9%
cell viability (THP-1; 1 nM): 89.2%
cell viability (THP-1; 10 nM): 97.9%
cell viability (THP-1; 100 nM): 93.1%
cell viability (THP-1; 1000 nM): 84.8%
cell viability (THP-1; 10000 nM): 94.8%

Cc1noc2c1-c1ccccc1C(c1ccc(Cl)cc1)=N[C@H]2CC(N)=O [CPI-0610]
cell viability (KG-1; 1 nM): 100%
cell viability (KG-1; 10 nM): 93.9%
cell viability (KG-1; 100 nM): 62.6%
cell viability (KG-1; 1000 nM): 21.5%
cell viability (KG-1; 10000 nM): 12.7%
cell viability (THP-1; 1 nM): 103%
cell viability (THP-1; 10 nM): 95.9%
cell viability (THP-1; 100 nM): 88.6%
cell viability (THP-1; 1000 nM): 51.1%
cell viability (THP-1; 10000 nM): 40.2%

O=C(c1ccc(OCCN2CCCCC2)cc1)c1c(-c2ccc(O)cc2)sc2cc(O)ccc12 [Raloxifene]
cell viability (KG-1; 1 nM): 102%
cell viability (KG-1; 10 nM): 90.6%
cell viability (KG-1; 100 nM): 92.1%
cell viability (KG-1; 1000 nM): 96.5%
cell viability (KG-1; 10000 nM): 75.1%
cell viability (THP-1; 1 nM): 94.5%
cell viability (THP-1; 10 nM): 97%
cell viability (THP-1; 100 nM): 96.5%
cell viability (THP-1; 1000 nM): 105%
cell viability (THP-1; 10000 nM): 93.5%
